Measured values taken from PubChem BioAssay (NCI).
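Tested at 5 concentrations; 48 h exposure; 96-well plates; endpoints linearly interpolated, else capped at highest concentration. Here, GI50 denotes the concentration required for 50% inhibition of growth. TGI marks complete inhibition of growth.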

Tests used:
Assay in all cases: NCI anticancer screen, dose series, 48 h
[1] = system: SW-620 colon
[2] = system: TK-10 renal
[3] = system: T-47D breast
[4] = system: PC-3 prostate
[5] = system: BT-549 breast
[6] = system: SNB-75 CNS
[7] = system: IGROV1 ovarian
[8] = system: NCI-H226 lung
[9] = system: UACC-62 melanoma
[10] = system: NCI-H522 lung
[11] = system: HS 578T breast
[12] = system: A498 renal
[13] = system: HL-60(TB) leukemia
[14] = system: COLO 205 colon
[15] = system: NCI-H23 lung
[16] = system: OVCAR-5 ovarian
[17] = system: NCI-H460 lung
[18] = system: HT29 colon
[19] = system: OVCAR-4 ovarian
[20] = system: MOLT-4 leukemia
[21] = system: SK-OV-3 ovarian
[22] = system: SF-295 CNS
[23] = system: MCF7 breast
[24] = system: CCRF-CEM leukemia
[25] = system: A549 NSCLC
[26] = system: KM12 colon
[27] = system: OVCAR-8 ovarian
[28] = system: SK-MEL-5 melanoma
[29] = system: DU-145 prostate
[30] = system: MDA-MB-231 breast
[31] = system: SN12C renal
[32] = system: ACHN renal
[33] = system: SNB-19 CNS
[34] = system: MDA-MB-435
[35] = system: SF-268 CNS
[36] = system: M14 melanoma
[37] = system: UACC-257 melanoma
[38] = system: RXF 393 renal
[39] = system: HOP-62 NSCLC
[40] = system: MALME-3M melanoma
[41] = system: K-562 leukemia
[42] = system: HCT-15 colon
[43] = system: SR leukemia
[44] = system: HCC-2998 colon
[45] = system: EKVX NSCLC
[46] = system: SF-539 CNS
[47] = system: SK-MEL-28 melanoma
[48] = system: CAKI-1 renal
[49] = system: U251 CNS
[50] = system: HOP-92 NSCLC
[51] = system: HCT-116 colon
[52] = system: UO-31 renal
[53] = system: NCI/ADR-RES ovarian
[54] = system: SK-MEL-2 melanoma
[55] = system: 786-0 renal

NS(=O)(=O)c1ccc(Nc2nc(N/N=C/c3ccc(C(F)(F)F)cc3)nc(Nc3ccccc3)n2)cc1
GI50 [1]: 3.3 µM
TGI [1]: 11.1 µM
GI50 [2]: 3.45 µM
TGI [2]: 10.5 µM
GI50 [3]: 2.48 µM
TGI [3]: 9.78 µM
GI50 [4]: 2.8 µM
TGI [4]: 9.72 µM
GI50 [5]: 2.79 µM
TGI [5]: 9.48 µM
GI50 [6]: 2.05 µM
TGI [6]: 6.24 µM
GI50 [7]: 2.64 µM
TGI [7]: 7.42 µM
GI50 [8]: 2.45 µM
TGI [8]: 6.22 µM
GI50 [9]: 2.35 µM
TGI [9]: 5.33 µM
GI50 [10]: 2.66 µM
TGI [10]: 7.77 µM
GI50 [11]: 3.07 µM
TGI [11]: > 100 µM
GI50 [12]: 2.61 µM
TGI [12]: 9.26 µM
GI50 [13]: 3.59 µM
TGI [13]: > 100 µM
GI50 [14]: 1.86 µM
TGI [14]: 4.37 µM
GI50 [15]: 1.95 µM
TGI [15]: 4.25 µM
GI50 [16]: 2.96 µM
TGI [16]: 11 µM
GI50 [17]: 3.02 µM
TGI [17]: 8.89 µM
GI50 [18]: 2.44 µM
TGI [18]: 5.78 µM
GI50 [19]: 3.69 µM
TGI [19]: 64.8 µM
GI50 [20]: 3.06 µM
TGI [20]: 14.4 µM
GI50 [21]: 3.66 µM
TGI [21]: 33.8 µM
GI50 [22]: 1.92 µM
TGI [22]: 4.07 µM
GI50 [23]: 2.18 µM
TGI [23]: 7.37 µM
GI50 [24]: 3 µM
TGI [24]: > 100 µM
GI50 [25]: 3.11 µM
TGI [25]: 11.6 µM
GI50 [26]: 2.38 µM
TGI [26]: 5.61 µM
GI50 [27]: 2.82 µM
TGI [27]: 10.4 µM
GI50 [28]: 1.74 µM
TGI [28]: 3.18 µM
GI50 [29]: 3.31 µM
TGI [29]: 11 µM
GI50 [30]: 2.31 µM
TGI [30]: 5.52 µM
GI50 [31]: 3 µM
TGI [31]: 10.2 µM
GI50 [32]: 2.68 µM
TGI [32]: 7.59 µM
GI50 [33]: 3.46 µM
TGI [33]: 11.4 µM
GI50 [34]: 2.07 µM
TGI [34]: 4.44 µM
GI50 [35]: 3.51 µM
TGI [35]: 14 µM
GI50 [36]: 2.51 µM
TGI [36]: 6.45 µM
GI50 [37]: 2.42 µM
TGI [37]: 7.26 µM
GI50 [38]: 1.82 µM
TGI [38]: 4.65 µM
GI50 [39]: 2.15 µM
TGI [39]: 5.78 µM
GI50 [40]: 1.87 µM
TGI [40]: 3.9 µM
GI50 [41]: 3.51 µM
TGI [41]: 12.8 µM
GI50 [42]: 2.32 µM
TGI [42]: 6.48 µM
GI50 [43]: 3.07 µM
TGI [43]: 15.3 µM
GI50 [44]: 2.97 µM
TGI [44]: 9.04 µM
GI50 [45]: 2.62 µM
TGI [45]: 8.51 µM
GI50 [46]: 1.86 µM
TGI [46]: 4.23 µM
GI50 [47]: 2.44 µM
TGI [47]: 7.37 µM
GI50 [48]: 3.05 µM
TGI [48]: 9.93 µM
GI50 [49]: 2.68 µM
TGI [49]: 11.3 µM
GI50 [50]: 2.38 µM
TGI [50]: 6.31 µM
GI50 [51]: 3.1 µM
TGI [51]: 10.3 µM
GI50 [52]: 1.88 µM
TGI [52]: 4.64 µM
GI50 [53]: 12.3 µM
TGI [53]: 75.7 µM
GI50 [54]: 2.17 µM
TGI [54]: 5 µM
GI50 [55]: 2.22 µM
TGI [55]: 5.2 µM
